What was measured:
U87MG = assay: MTT cytotoxicity assay, U87MG; type: cell-based, human; conditions: 72 h incubation
Experimental: The cytotoxic activity of prepared RAPTA complexes (4a–4h) was evaluated by following the standard procedure of the MTT experiment against a series of glioblastoma cells (LN 229, T98, U87MG) in triplicate. In order to accomplish this study, cells were maintained for 72 h with complexes of various concentrations ranging from 2–160 μM, taking cisplatin as a typical positive control.[22]
RAPTA complexes were dissolved in 1% DMSO, and 0.9% NaCl aqueous solution was used to dissolve cisplatin. A cell suspension was prepared and the number of cells taken was 2.5 × 10^4 mL^−1. The cells were seeded in 96-well plates (200 μL per well) and allowed 80% confluence prior to treatment. The cells were formerly treated with various concentrations (2.5–160 μM) of complex 4a–h while the control group was treated with PBS […]. After the 72 hours of incubation, 0.5% MTT solution was added to each well (20 μL) and further incubated for 4 hours at […]. The formazan crystals that were formed were dissolved in 150 μL DMSO and then the OD was measured by a microplate reader at 540 nm. The % growth inhibition of the control and treated cells were calculated and represented as the growth inhibition percentage as explained below.% growth inhibition = 100 − [(AD × 100)/AB]where AD is the absorbance measured in wells containing the treated and control samples and AB is the measured absorbance for the wells with media and a vehicle that served as the blank. IC50 was calculated using Graphpad Prism (version 6.0) where % cell viability was plotted against drug concentration.

Ct-DNA = assay: Viscosity measurement with Ct-DNA; type: binding, calf; conditions: with respect to EtBr
Experimental: The hydrodynamic study of the viscosity was conducted to screen the binding nature of the designated complexes 4c and 4d with Ct-DNA.
with respect to cisplatin.
UV–Visible, fluorescence spectroscopies and cyclic voltammetry, J. Photochem.
2. M. Shamsi-Sani, F. Hirini, SM. Abedini, M. Seddighi, Synthesis of benzimidazole
dipyridoquinoxaline and dipyridophenazine ligands as photosensitizing antennae:
curvature in Stern-Volmer plots, J. Am. Chem. Soc., 1983, 105, 1494–1498. (b) B.
hypoxia active, GSH-resistant cancer cytoselective and mitochondria-targeting
cancer stem cell therapeutic agents. Dalton Trans., 2022, 51, 5494-5514.
derivative with bovine serum albumin, J. Pharm. Anal., 2016, 6, 56–63.
6. K. Jeyalakshmi, J. Haribabu, C. Balachandran, S. Swaminathan, N. S. P.

[1] = biological target: bovine serum albumin (BSA) (Bos taurus, UniProt P02769); assay: BSA binding study, tryptophan emission quenching; conditions: for n, number of binding sites (BSA): Scatchard equation; for kq, quenching rate constant (BSA): from KBSA and τo (1 × 10^−8 s)
Experimental: The KBSA of the complexes was obtained from Stern–Volmer plots by applying the well-known Stern–Volmer equation (Fig. S4 ^†). On the other hand, the quenching constants (kq) of 6.3 × 10^14 M^−1 s^−1 and 1.8 × 10^14 M^−1 s^−1 arising from biomolecular interactions were evaluated from KBSA and τo (1 × 10^−8 s) for the complexes 4c and 4d, correspondingly (Table S3 ^†). […]
Kapp × [Complex]50 = kEtBr × [EtBr]⋯⋯⋯(iii) […]
Stern-Volmer equation was followed for quantitative determination of the Stern-Volmer quenching constant (K SV).4 Origin (8.5) software was used to plot the fluorescence data to obtain linear plot of I0/I vs. [complex]. The value of KSV was calculated from the following […]
Where I0 = fluorescence intensity in absence of complex and I = fluorescence intensities in presence of complex of concentration [Q].
Protein binding studies 5
The main component is serum albumin proteins in drug transport and metabolism, as we all know. The interaction of the complex with […] serum albumin (BSA) was examined using a tryptophan emission quenching experiment. The association of the RAPTA complexes 4c and 4d with the protein BSA was detected using a tryptophan emission quenching assay. […]
concentrations gradually.
Origin Lab, version 8.5 was […]
equation (v) given below: […]

T98G cell line = assay: Time-dependent ROS generation study, DCFH-DA staining; type: cell-based, human; conditions: 20 μM, 2, 6 and 10 h
Experimental: The oxidative stress was measured by the level of intracellular ROS via 2′,7′-dichlorodihydrofluorescein diacetate (DCFH-DA) staining.[24] […] Herein, cells were treated with complexes 4c and 4d with a concentration of 20 μM for 2, 6 and 10 h. We observed a higher level of […] fluorescence with the increase in the incubation time because of ROS generation (Fig. 6).
Fig. 7 Graphical representation of the average DCF fluorescence intensity in the T98G cell line upon treatment with cisplatin and complexes 4c and 4d. Incubation time: 2 h, 6 h and 10 h.
Brain cancer cells were stained with 2′,7′-dichlorofluorescein diacetate (DCFDA) to measure the reactive oxygen species (ROS) and subsequent oxidative stress generated from RAPTA complexes. They were restained by the […] fluorescence intensity generated from oxidized DCFDA. The cancer cells were cultured in a 24-well plate till 70% confluency and treatment was carried out with the aforesaid complex for 24 hours. The ROS generation mediated by the complex was evaluated using DCFDA-2′,7′-dichlorofluorescein diacetate (25 μM) staining for 30 min. The cells were washed with PBS, followed by fresh media replenishment. The images were captured under the EVOS M5000 fluorescent live cell imager (Thermo Fisher Scientific, USA).

VEGF = VEGF Elisa test; type: cell-based, human; conditions: U87MG and T98G, 1 to 20 μM
Text: The vascular endothelial growth factor (VEGF), formerly known as the vascular permeability factor (VPF) is a signal protein produced by many cells, which stimulates blood vessel formation. In hypoxic conditions when blood circulation is insufficient in the cells, VEGF restores the oxygen supply to tissues.[26] Proper blood supply is required for solid tumour proliferation beyond a limited size; therefore, cancers that can express VEGF are able to grow and metastasize. Two cancer cells, i.e. U87MG and T98G were incubated with increased concentrations (1 to 20 μM) of 4c and 4d and the % of inhibition of VEGF was estimated by an ELISA reader.
The capture antibody was diluted to the working concentration in PBS without the carrier protein for coating the 96-well plate. The plate was sealed and incubated overnight at room temperature. It was then aspirated and washed three times with wash buffer and blocked by adding 300 μL of reagent diluent to each well and then incubating at room temperature for a minimum of 1 h. This aspiration was repeated again and then the plate was ready for sample addition.
The cells (U87MG and T98G) were treated for 48 h and the supernatants were collected; 100 μL of these samples were added per well and incubated for 2 h at room temperature. […] The optical density of each well was measured immediately by an Elisa reader (λexc = 450 nm).

bovine serum albumin (BSA), sequence (P02769 25-607): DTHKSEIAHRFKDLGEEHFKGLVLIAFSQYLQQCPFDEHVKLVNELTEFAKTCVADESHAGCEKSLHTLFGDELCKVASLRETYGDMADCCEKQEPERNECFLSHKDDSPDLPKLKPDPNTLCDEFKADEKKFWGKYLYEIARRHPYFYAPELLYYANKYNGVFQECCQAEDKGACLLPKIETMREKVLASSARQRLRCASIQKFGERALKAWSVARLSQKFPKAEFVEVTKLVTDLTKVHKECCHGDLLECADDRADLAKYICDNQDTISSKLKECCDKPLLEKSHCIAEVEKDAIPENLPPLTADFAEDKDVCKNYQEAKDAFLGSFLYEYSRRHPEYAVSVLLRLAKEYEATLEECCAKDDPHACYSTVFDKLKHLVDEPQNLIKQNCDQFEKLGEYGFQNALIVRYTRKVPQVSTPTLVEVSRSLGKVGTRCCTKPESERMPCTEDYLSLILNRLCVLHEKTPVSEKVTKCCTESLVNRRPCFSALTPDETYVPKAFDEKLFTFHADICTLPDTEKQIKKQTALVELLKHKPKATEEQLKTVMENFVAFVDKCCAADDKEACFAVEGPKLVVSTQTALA

Compound | IC50 (U87MG) | relative viscosity of Ct-DNA on increasing complex concentration (Ct-DNA) | n, number of binding sites (BSA) [1] | kq, quenching rate constant (BSA) [1] | average DCF fluorescence intensity (intracellular ROS) (T98G cell line) | VEGF concentration with the increase in complex concentration (VEGF) | K, binding constant with BSA ([1]; Scatchard plot)
C1N2CN3CN1CP(C2)C3.Cc1ccc(C(C)C)cc1.Cc1ccnc2c1ccc1c(C)ccnc12.F[P-](F)(F)(F)(F)F.F[P-](F)(F)(F)(F)F.[Ru+2] [4c, [(η^6-p-Cymene)Ru^II(κ^2-N,N-4,7dimethylphenanthroline)(PTA)]·2PF6] | 0.97 ± 0.02 µM | abrupt increase in viscosity up to ri = 2 | 1 | 6.3e+14 M⁻¹ s⁻¹ | gradual increase with respect to the incubation time | constant decrease | –
C1N2CN3CN1CP(C2)C3.Cc1ccc(C(C)C)cc1.F[P-](F)(F)(F)(F)F.F[P-](F)(F)(F)(F)F.[Ru+2].c1ccc(-c2ccnc3c2ccc2c(-c4ccccc4)ccnc23)cc1 [4d, [(η^6-p-Cymene)Ru^II(κ^2-N,N-4,7diphenylphenanthroline)(PTA)]·2PF6] | 0.93 ± 0.02 µM | steady escalation in the relative viscosity | 1 | 1.8e+14 M⁻¹ s⁻¹ | gradual increase with respect to the incubation time | constant decrease | 52500 M⁻¹

From article PMC9241057, “Ru(II)arene(N^N bpy/phen)-based RAPTA complexes for in vitro anti-tumour activity in human glioblastoma cancer cell lines and in vivo toxicity studies in a zebrafish model” (RSC Advances, 2022)
